Measurements reported in paper PMC10698726 (Molecular Pharmaceutics, 2023).
Like-named read-outs stand apart in the source and are kept apart here.

Columns and labels:
[1] = oral administration, cited from earlier work
OCT2 = molecular target: T1, OCT2 (Homo sapiens, UniProt O15244); assay: Inhibition of model substrate uptake in OCT2-overexpressing HEK293 cells; conditions: for IC50: IC50 [μM], OCT2, Table 1; for inhibition at 5 min, 20 μM: human, OCT2-overexpressing HEK293 cells
T1 sequence (O15244 1-555): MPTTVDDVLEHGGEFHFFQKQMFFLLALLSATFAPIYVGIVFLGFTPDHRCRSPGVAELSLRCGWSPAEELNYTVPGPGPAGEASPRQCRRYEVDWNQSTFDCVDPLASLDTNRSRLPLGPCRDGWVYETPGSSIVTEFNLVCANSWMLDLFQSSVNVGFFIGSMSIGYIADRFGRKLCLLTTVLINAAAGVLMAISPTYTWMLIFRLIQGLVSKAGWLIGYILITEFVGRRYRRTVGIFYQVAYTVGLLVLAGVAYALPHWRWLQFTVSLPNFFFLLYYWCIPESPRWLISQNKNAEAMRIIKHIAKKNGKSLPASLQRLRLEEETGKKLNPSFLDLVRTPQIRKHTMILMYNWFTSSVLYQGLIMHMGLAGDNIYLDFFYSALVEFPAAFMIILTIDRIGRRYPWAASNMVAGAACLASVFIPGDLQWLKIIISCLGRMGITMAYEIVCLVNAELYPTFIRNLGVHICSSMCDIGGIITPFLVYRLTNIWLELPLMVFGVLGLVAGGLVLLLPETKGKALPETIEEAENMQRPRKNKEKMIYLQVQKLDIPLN

OCT1 [2] = molecular target: T2, OCT1 (Homo sapiens, UniProt O15245); assay: Inhibition of model substrate uptake in OCT1-overexpressing HEK293 cells; type: cell-based; set-up: expressed in transfected cells; host or cells: HEK293; conditions: human, OCT1-overexpressing HEK293 cells, OCT1, 20 μM inhibitor, 5 min
T2 sequence (O15245 1-554): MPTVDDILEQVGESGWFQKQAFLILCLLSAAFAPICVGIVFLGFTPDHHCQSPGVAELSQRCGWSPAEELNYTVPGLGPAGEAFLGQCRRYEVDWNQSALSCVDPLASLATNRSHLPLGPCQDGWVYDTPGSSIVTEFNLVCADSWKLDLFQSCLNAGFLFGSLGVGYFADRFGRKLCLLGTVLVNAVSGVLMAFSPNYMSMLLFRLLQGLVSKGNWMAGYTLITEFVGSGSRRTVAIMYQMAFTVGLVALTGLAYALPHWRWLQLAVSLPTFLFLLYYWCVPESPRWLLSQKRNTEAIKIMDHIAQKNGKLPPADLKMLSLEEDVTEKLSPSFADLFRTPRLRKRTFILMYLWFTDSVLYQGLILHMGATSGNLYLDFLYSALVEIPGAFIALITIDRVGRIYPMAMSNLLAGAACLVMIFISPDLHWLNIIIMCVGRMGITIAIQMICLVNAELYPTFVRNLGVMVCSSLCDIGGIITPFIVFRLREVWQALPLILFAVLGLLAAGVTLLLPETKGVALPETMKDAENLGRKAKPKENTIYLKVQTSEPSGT
Method: Koepsell and Gorbulev (University of Würzburg, Germany).
Fluorescence quantification was performed in technical duplicates.

OCT3 = molecular target: T3, OCT3 (Homo sapiens, UniProt O75751); assay: Inhibition of model substrate uptake in OCT3-overexpressing HEK293 cells; type: cell-based; conditions: 20 μM inhibitor, 5 min
T3 construct: expressed in transfected cells; host or cells: HEK293
T3 sequence (O75751 1-556): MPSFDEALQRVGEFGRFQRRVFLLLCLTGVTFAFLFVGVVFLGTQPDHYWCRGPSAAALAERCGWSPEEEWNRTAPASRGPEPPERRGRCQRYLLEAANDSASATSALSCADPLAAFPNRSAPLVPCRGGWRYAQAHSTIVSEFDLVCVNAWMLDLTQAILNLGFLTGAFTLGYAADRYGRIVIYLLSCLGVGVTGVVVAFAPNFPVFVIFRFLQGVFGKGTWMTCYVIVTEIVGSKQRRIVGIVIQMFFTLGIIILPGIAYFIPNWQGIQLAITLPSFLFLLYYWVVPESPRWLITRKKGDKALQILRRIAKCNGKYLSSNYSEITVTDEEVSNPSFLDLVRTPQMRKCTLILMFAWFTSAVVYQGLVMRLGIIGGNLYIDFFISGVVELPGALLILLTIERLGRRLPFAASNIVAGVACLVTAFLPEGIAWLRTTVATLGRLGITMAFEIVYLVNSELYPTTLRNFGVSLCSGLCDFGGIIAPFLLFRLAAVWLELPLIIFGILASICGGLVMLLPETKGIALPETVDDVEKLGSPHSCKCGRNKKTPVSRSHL
Summary of the method: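 Transporter-overexpressing HEK293 cells were incubated 5 min in HBSS+ with 2 μM model substrate, with or without 20 μM inhibitor or increasing inhibitor concentrations. Uptake was read as ASP^+ fluorescence or by LC–MS/MS, with empty-vector uptake subtracted. IC50 came from a Hill fit of activity versus log concentration.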

OCT1 [3] = molecular target: T2, OCT1; conditions: cited from earlier work
[4] = pH 7.4, probe (S,S)-ethambutol (2 μM), (S,S)-Ethambutol inhibition [%], 2 μM (S,S)-ethambutol
[5] = pH 7.4, probe ASP+ (2 μM), 2 μM ASP+, mean of three experiments, read-out: ASP+ inhibition [%]
[6] = pH 7.4, probe sumatriptan (2 μM), 2 μM sumatriptan, read-out: Sumatriptan inhibition [%]
[7] = HEK293, 5 min, read-out: (S)-Zolmitriptan inhibition [%], OCT3, 2 μM (S)-zolmitriptan
[8] = HEK293, 5 min, read-out: (S,S)-Ethambutol inhibition [%], OCT3, 2 μM (S,S)-ethambutol
[9] = HEK293, OCT3, 2 μM ASP+, read-out: ASP+ inhibition [%]
[10] = ref 2 (Matthaei et al., 2016, supplement)

Compound | IC50 (OCT2) [µM] | inhibition at 5 min, 20 μM (OCT1 [2]; [4]) [%] | inhibition at 5 min, 20 μM (OCT1 [2]; [5]) [%] | inhibition at 5 min, 20 μM (OCT1 [2]; [6]) [%] | inhibition at 20 µM (OCT3; [7]) [%] | inhibition at 20 µM (OCT3; [8]) [%] | inhibition at 20 µM (OCT3; [9]) [%] | also measured
CCN1CCC[C@@H]1CNC(=O)c1cc(S(=O)(=O)CC)c(N)cc1OC [(R)-Amisulpride] | 9.4 | 57.7 | 25.2 | 29.3 | 56 | 81.3 | 37.9 | Imax ([1]; amisulpride, single dose (50 mg)): 0.158 µM; (S,S)-Ethambutol inhibition [%] (OCT2; OCT2, 20 μM inhibitor, 2 μM (S,S)-ethambutol, 5 min): -5.7%; ASP+ inhibition [%] (OCT2; OCT2, 20 μM inhibitor, 2 μM ASP+, 5 min): 65.9%; N-Ethyllidocaine inhibition [%] (OCT2; OCT2, 20 μM inhibitor, 2 μM N-ethyllidocaine, 5 min): 11.3%
CC(Cc1ccc(O)cc1)NCC(O)c1cc(O)cc(O)c1 (racemic) [rac Fenoterol, Fenoterol] |  |  |  |  |  |  |  | Clint ± SEM (OCT1 [3]; ref 1 (Tzvetkov et al., 2018, supplement)): 33.0
CN(C)CCC[C@@]1(c2ccc(F)cc2)OCc2cc(C#N)ccc21 [(S)-Citalopram] | 10.7 | 80.1 | 37.2 | 77.6 | 19.2 | 31.7 | 10.9 | Imax ([1]; citalopram, multiple doses (40 mg, once daily for 21 d)): 0.154 µM; inhibition at 5 min, 20 μM (OCT2; pH 7.4, probe (S,S)-ethambutol (2 μM), (S,S)-Ethambutol inhibition [%], OCT2, 20 μM inhibitor, 2 μM (S,S)-ethambutol, 5 min): -9.7%; inhibition at 5 min, 20 μM (OCT2; pH 7.4, probe ASP+ (2 μM), ASP+ inhibition [%], OCT2, 20 μM inhibitor, 2 μM ASP+, 5 min): 68.6%; inhibition at 5 min, 20 μM (OCT2; pH 7.4, probe N-ethyllidocaine (2 μM), N-Ethyllidocaine inhibition [%], OCT2, 20 μM inhibitor, 2 μM N-ethyllidocaine, 5 min): 26.5%
CNS(=O)(=O)Cc1ccc2[nH]cc(CCN(C)C)c2c1 [Sumatriptan] |  |  |  |  |  |  |  | Km (OCT1 [3]; read-out: Km ± SEM, ref 2 (Matthaei et al., 2016, supplement)): 55.4 µM; Clint ± SEM (OCT1 [3]; [10]): 17.6; vmax ± SEM [pmol × mg Protein−1 × min−1] (OCT1 [3]; [10]): 978 pmol × mg Protein−1 × min−1
